Experimental data: ChEMBL document CHEMBL1201862, “PubChem BioAssay data set” (2004)
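Growth conditions: 96-well plates. Treatment: test compound, 48 hours, 5 concentrations. Analysis: linear interpolation between bracketing concentrations; unreached endpoints set to highest concentration. GI50 marks 50% less growth.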 Activity calls are given as the source filed them. Cut-off read from the data, not from the text of the source: active = GI50 up to about 1.1 µM and inactive = higher.

What was measured:
Assay in all cases: NCI-60 cell line screen, 48 h
[1] = system: KM12
[2] = system: ACHN
[3] = system: HOP-18
[4] = system: OVCAR-3
[5] = system: HCC 2998
[6] = system: UO-31
[7] = system: NCI-H522
[8] = system: SW-620
[9] = system: IGROV-1
[10] = system: CCRF-CEM
[11] = system: U-251
[12] = system: KM-20L2
[13] = system: HCT-116
[14] = system: UACC-257
[15] = system: SF-539
[16] = system: RXF 631
[17] = system: OVCAR-8
[18] = system: SNB-78
[19] = system: SN12C
[20] = system: NCI-H226
[21] = system: SNB-19
[22] = system: COLO 205
[23] = system: SK-MEL-28
[24] = system: RPMI-8226
[25] = system: OVCAR-5
[26] = system: M19-MEL
[27] = system: HCT-15
[28] = system: HOP-62
[29] = system: CAKI-1
[30] = system: LOX IMVI
[31] = system: HOP-92
[32] = system: TK-10
[33] = system: UACC-62
[34] = system: RXF 393
[35] = system: DMS-273
[36] = system: A549
[37] = system: HT-29
[38] = system: SF-295
[39] = system: OVCAR-4
[40] = system: SF-268
[41] = system: SK-MEL-2
[42] = system: HL-60
[43] = system: SK-MEL-5
[44] = system: DMS-114
[45] = system: Malme-3M
[46] = system: NCI-H460
[47] = system: NCI-H23
[48] = system: 786-0
[49] = system: MOLT-4
[50] = system: DLD-1
[51] = system: K562
[52] = system: SNB-75
[53] = system: SK-OV-3
[54] = system: A498
[55] = system: M14
[56] = system: SR
[57] = system: LXFL 529
[58] = system: EKVX
[59] = system: XF498

CCOC(=O)NC(=O)c1cn(C2CCCCC2)c(=O)n(C)c1=O
GI50 [1]: > 100 µM (inactive) | GI50 [2]: > 100 µM (inactive) | GI50 [3]: > 100 µM (inactive) | GI50 [4]: > 100 µM (inactive) | GI50 [5]: > 100 µM (inactive) | GI50 [6]: > 100 µM (inactive) | GI50 [7]: > 100 µM (inactive) | GI50 [8]: > 100 µM (inactive) | GI50 [9]: > 100 µM (inactive) | GI50 [10]: > 100 µM (inactive) | GI50 [11]: > 100 µM (inactive) | GI50 [12]: > 100 µM (inactive) | GI50 [13]: > 100 µM (inactive) | GI50 [14]: > 100 µM (inactive) | GI50 [15]: > 100 µM (inactive) | GI50 [16]: > 100 µM (inactive) | GI50 [17]: > 100 µM (inactive) | GI50 [18]: > 100 µM (inactive) | GI50 [19]: > 100 µM (inactive) | GI50 [20]: > 100 µM (inactive) | GI50 [21]: > 100 µM (inactive) | GI50 [22]: > 100 µM (inactive) | GI50 [23]: > 100 µM (inactive) | GI50 [24]: > 100 µM (inactive) | GI50 [25]: > 100 µM (inactive) | GI50 [26]: > 100 µM (inactive) | GI50 [27]: > 100 µM | GI50 [28]: > 100 µM (inactive) | GI50 [29]: > 100 µM (inactive) | GI50 [30]: > 100 µM (inactive) | GI50 [31]: > 100 µM (inactive) | GI50 [32]: > 100 µM (inactive) | GI50 [33]: > 100 µM (inactive) | GI50 [34]: > 100 µM (inactive) | GI50 [35]: > 100 µM (inactive) | GI50 [36]: > 100 µM (inactive) | GI50 [37]: > 100 µM (inactive) | GI50 [38]: > 100 µM (inactive) | GI50 [39]: > 100 µM (inactive) | GI50 [40]: > 100 µM (inactive) | GI50 [41]: > 100 µM (inactive) | GI50 [42]: > 100 µM (inactive) | GI50 [43]: > 100 µM (inactive) | GI50 [44]: > 100 µM (inactive) | GI50 [45]: > 100 µM (inactive) | GI50 [46]: > 100 µM (inactive) | GI50 [47]: > 100 µM (inactive) | GI50 [48]: > 100 µM (inactive) | GI50 [49]: > 100 µM (inactive) | GI50 [50]: > 100 µM (inactive) | GI50 [51]: > 100 µM (inactive) | GI50 [52]: > 100 µM (inactive) | GI50 [53]: > 100 µM (inactive) | GI50 [54]: > 100 µM (inactive) | GI50 [55]: > 100 µM (inactive) | GI50 [56]: > 100 µM (inactive) | GI50 [57]: > 100 µM (inactive)

CCN(CC)c1c(C(=O)/C=C/c2ccc(OC)cc2)c(-c2ccccc2)nn(C)c1=O
GI50 [1]: 12.7 µM (inactive) | GI50 [2]: 10.9 µM (inactive) | GI50 [3]: 22.2 µM (inactive) | GI50 [6]: 36.6 µM (inactive) | GI50 [8]: 26.5 µM (inactive) | GI50 [9]: 19.2 µM (inactive) | GI50 [10]: 6.78 µM (inactive) | GI50 [11]: 13.5 µM (inactive) | GI50 [12]: 15.4 µM (inactive) | GI50 [14]: 19.6 µM (inactive) | GI50 [15]: 17.1 µM (inactive) | GI50 [16]: 20.6 µM (inactive) | GI50 [17]: 22.2 µM (inactive) | GI50 [18]: 25 µM (inactive) | GI50 [19]: 21 µM (inactive) | GI50 [20]: 16.1 µM (inactive) | GI50 [21]: 17.8 µM (inactive) | GI50 [58]: 8 µM (inactive) | GI50 [22]: 3.87 µM (inactive) | GI50 [23]: 16.7 µM (inactive) | GI50 [25]: 5.46 µM (inactive) | GI50 [26]: 6.34 µM (inactive) | GI50 [28]: 45.9 µM (inactive) | GI50 [29]: 29.8 µM (inactive) | GI50 [30]: 14.9 µM (inactive) | GI50 [31]: 6.07 µM (inactive) | GI50 [32]: 32.8 µM (inactive) | GI50 [33]: 10.5 µM (inactive) | GI50 [34]: 10.6 µM (inactive) | GI50 [35]: 2.37 µM (inactive) | GI50 [36]: 12 µM (inactive) | GI50 [37]: 9.51 µM (inactive) | GI50 [38]: 21.5 µM (inactive) | GI50 [39]: 8.75 µM (inactive) | GI50 [40]: 6.52 µM (inactive) | GI50 [41]: 18.6 µM (inactive) | GI50 [42]: 6.7 µM (inactive) | GI50 [43]: 8.41 µM (inactive) | GI50 [44]: 13.4 µM (inactive) | GI50 [45]: 15.1 µM (inactive) | GI50 [46]: 7.83 µM (inactive) | GI50 [47]: 10.4 µM (inactive) | GI50 [48]: 14.1 µM (inactive) | GI50 [49]: 2.67 µM (inactive) | GI50 [50]: 12.1 µM (inactive) | GI50 [51]: 9.06 µM (inactive) | GI50 [53]: 36 µM (inactive) | GI50 [54]: 20.9 µM (inactive) | GI50 [56]: 5.55 µM (inactive) | GI50 [57]: 10.7 µM (inactive)

O=C(O)CN(c1ccc(Cl)cc1)S(=O)(=O)c1ccccc1
GI50 [1]: > 100 µM (inactive) | GI50 [2]: > 100 µM (inactive) | GI50 [3]: > 100 µM (inactive) | GI50 [4]: > 100 µM (inactive) | GI50 [6]: > 100 µM (inactive) | GI50 [7]: > 100 µM (inactive) | GI50 [8]: > 100 µM (inactive) | GI50 [9]: > 100 µM (inactive) | GI50 [10]: > 100 µM (inactive) | GI50 [11]: > 100 µM (inactive) | GI50 [12]: > 100 µM (inactive) | GI50 [14]: > 100 µM (inactive) | GI50 [15]: > 100 µM (inactive) | GI50 [16]: > 100 µM (inactive) | GI50 [17]: > 100 µM (inactive) | GI50 [19]: > 100 µM (inactive) | GI50 [20]: > 100 µM (inactive) | GI50 [21]: > 100 µM (inactive) | GI50 [58]: > 100 µM (inactive) | GI50 [22]: 51.2 µM (inactive) | GI50 [23]: > 100 µM (inactive) | GI50 [24]: > 100 µM (inactive) | GI50 [25]: > 100 µM (inactive) | GI50 [26]: > 100 µM (inactive) | GI50 [27]: > 100 µM | GI50 [29]: > 100 µM (inactive) | GI50 [30]: > 100 µM (inactive) | GI50 [31]: > 100 µM (inactive) | GI50 [32]: > 100 µM (inactive) | GI50 [33]: > 100 µM (inactive) | GI50 [34]: > 100 µM (inactive) | GI50 [35]: > 100 µM (inactive) | GI50 [36]: > 100 µM (inactive) | GI50 [37]: > 100 µM (inactive) | GI50 [38]: > 100 µM (inactive) | GI50 [39]: > 100 µM (inactive) | GI50 [40]: > 100 µM (inactive) | GI50 [41]: > 100 µM (inactive) | GI50 [42]: > 100 µM (inactive) | GI50 [43]: > 100 µM (inactive) | GI50 [45]: > 100 µM (inactive) | GI50 [46]: > 100 µM (inactive) | GI50 [47]: > 100 µM (inactive) | GI50 [48]: > 100 µM (inactive) | GI50 [49]: > 100 µM (inactive) | GI50 [50]: > 100 µM (inactive) | GI50 [51]: > 100 µM (inactive) | GI50 [52]: > 100 µM (inactive) | GI50 [53]: > 100 µM (inactive) | GI50 [59]: > 100 µM (inactive) | GI50 [54]: > 100 µM (inactive) | GI50 [55]: > 100 µM (inactive) | GI50 [57]: > 100 µM (inactive)
